No end group written: not given here.
Legend:
adrenal gland = experiment: MRI of adrenal glands after ACTH-MNP injection; assay type: in vivo, mouse; settings: tail vein
Experimental: ACTH-MNP was injected through tail vein (approximately 1 μg iron-oxide per gram of body weight) in a 1-day old mouse and a 60-day old mouse. MR images (T2, TE 6000, TR=[…], 0.4-1 mm slice thickness, 3 cm FOV, Brucker Biospin 7T) were obtain before, and up to 3 hours after injection with these contrast agents.

[1] = Shelf-life of the compounds; assay type: physicochemical
[2] = Tissue half-life of the particles; settings: in vivo
AtT-20 cells = experiment: Functional studies of tumor cells: c-AMP production; assay type: cell-based, Murine
Experimental: Functional studies of tumor cells. Murine pituitary tumor cell lines (AtT-20 cells; American Type Culture Collection designation CCL-89™) were incubated with CRF and CRF-MNP preparations at 6 different molar concentrations of CRF and CRF-equivalent concentration of CRF-MNP (10^−12-10^−7 molar, factor of 10 increase per step). Production of c-AMP (nM) was measured after equivalent times of incubation with all the preparations.

[3] = equivalent CRF concentrations 10^−12-10^−7 molar

Substance	uptake in the adrenals (adrenal gland; 1-day old mouse, 5 μl)	uptake in the adrenals (adrenal gland; 60 day old mouse, 100 μl)	shelf-life [1]	tissue half-life [2]	cytotoxicity (AtT-20 cells; AtT-20 cells)	functional properties of CRF while conjugated to the nanoparticles (AtT-20 cells; cellular level)	decrease in potency compared to CRF (c-AMP production) (AtT-20 cells; [3])	increase in efficacy compared to CRF (c-AMP production) (AtT-20 cells; [3])
ACTH-MNP: Adrenocorticotropin Hormone (ACTH)-conjugated dextran-coated and epoxy surface-modified magnetonanoparticles, 10-15 nm diameter (SYSMEHFRWGKPVGKKRRPVKVYPNGAEDESAEAFPLEF; also: conjugated to dextran-coated, epoxy surface-modified magnetic nanoparticles; UniProt P01189 138-176, looked up)	increased uptake (decreased signal intensity)	increased uptake (decreased signal intensity)	2-3 months	order of hours to days				
CRF-MNP: CRF-conjugated dextran-coated and maleimide surface-modified magnetonanoparticles, 10-15 nm diameter			6-12 months	order of hours to days	not cytotoxic	retains its functional properties	approximately 10 fold	two-fold increase
